Results on eleven molecules are retold here after patent US12612410B2 (CHILDREN'S HOSPITAL MEDICAL CENTER, priority 2020, dated 2026).

In the assay the target is T1, FLT3 D835Y (Homo sapiens, UniProt P36888, D835Y).
T1 construct: host or cells: E. coli BL21-derived host (T7 phage) or HEK-293
T1 sequence (P36888 27-993 D835Y): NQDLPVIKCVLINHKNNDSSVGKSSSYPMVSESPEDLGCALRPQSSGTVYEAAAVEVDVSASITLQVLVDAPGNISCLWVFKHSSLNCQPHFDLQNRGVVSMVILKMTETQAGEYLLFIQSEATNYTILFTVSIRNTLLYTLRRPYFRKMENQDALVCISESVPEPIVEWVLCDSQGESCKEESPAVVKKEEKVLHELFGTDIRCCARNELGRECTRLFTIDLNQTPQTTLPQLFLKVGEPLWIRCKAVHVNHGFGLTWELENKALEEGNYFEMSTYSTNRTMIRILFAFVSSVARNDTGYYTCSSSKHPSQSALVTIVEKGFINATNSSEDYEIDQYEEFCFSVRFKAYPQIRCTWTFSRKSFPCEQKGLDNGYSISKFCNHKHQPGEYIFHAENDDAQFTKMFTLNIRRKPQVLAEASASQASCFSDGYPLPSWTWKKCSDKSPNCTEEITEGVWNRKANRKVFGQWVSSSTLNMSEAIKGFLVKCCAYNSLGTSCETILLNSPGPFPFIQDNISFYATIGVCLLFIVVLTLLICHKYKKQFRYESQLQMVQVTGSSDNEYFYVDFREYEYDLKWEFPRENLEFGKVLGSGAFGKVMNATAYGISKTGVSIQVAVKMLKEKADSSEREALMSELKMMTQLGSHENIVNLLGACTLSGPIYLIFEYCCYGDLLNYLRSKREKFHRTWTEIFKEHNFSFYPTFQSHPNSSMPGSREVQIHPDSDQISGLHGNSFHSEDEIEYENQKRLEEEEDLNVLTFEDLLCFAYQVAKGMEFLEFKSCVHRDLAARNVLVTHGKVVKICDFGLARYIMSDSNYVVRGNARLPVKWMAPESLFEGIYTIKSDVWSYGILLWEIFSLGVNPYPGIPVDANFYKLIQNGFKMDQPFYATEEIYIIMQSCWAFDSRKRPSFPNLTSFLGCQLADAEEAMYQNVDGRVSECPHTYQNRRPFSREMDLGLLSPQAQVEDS
The assay is described as follows: DiscoverX KINOMEscan competition binding, FLT3 D835Y. The source says:
Kinase binding data were obtained for various exemplary compounds prepared according to Examples 1-24 using the DiscoverX KINOMVIEscan® active site-directed competition binding site-directed assay protocol described below. […] As a result, the data report thermodynamic interaction affinities (Kd values), rather than IC50 values that are dependent on ATP concentrations. The assay uses a DNA-tagged version of the protein kinase, and an immobilized ligand bound to a solid support. Compounds that directly or indirectly prevent kinase binding to the immobilized ligand reduce the amount of kinase captured on the solid support, which is detected using an ultra-sensitive qPCR method. Affinity constants reported from the assay have been reported to be independent of the immobilized ligand used that is coupled to the solid support (See supplemental information in Fabian, M. A. et. al., (2005) Nat. Biotechnol. 23, 329-336; Wodicka, L. M. et. al., (2010) Chem. Biol. 17, 1241-1249.)
Kinase-tagged T7 phage strains were prepared in an E. coli host derived from the BL21 strain. E. coli were grown to log-phase and infected with T7 phage and incubated with shaking at 32° C. until lysis. The lysates were centrifuged and filtered to remove cell debris. The remaining kinases were produced in HEK-293 cells and subsequently tagged with DNA for qPCR detection. Streptavidin-coated magnetic beads were treated with biotinylated small molecule ligands for 30 minutes at room temperature to generate affinity resins for kinase assays. The liganded beads were blocked with excess biotin and washed with blocking buffer (SeaBlock (Pierce), 1% BSA, 0.05% Tween 20, 1 mM DTT) to remove unbound ligand and to reduce non-specific binding. Binding reactions were assembled by combining kinases, liganded affinity beads, and test compounds in 1× binding buffer (20% SeaBlock, 0.17×PBS, 0.05% Tween 20, 6 mM DTT). Test compounds were prepared as 111× stocks in 100% DMSO. Kds were determined using an 11-point 3-fold compound dilution series with three DMSO control points. All compounds for Kd measurements are distributed by acoustic transfer (non-contact dispensing) in 100% DMSO. The compounds were then diluted directly into the assays such that the final concentration of DMSO was 0.9%. All reactions were performed in polypropylene 384-well plates. Each was a final volume of 0.02 mL. The assay plates were incubated at room temperature with shaking for 1 hour and the affinity beads were washed with wash buffer (1×PBS, 0.05% Tween 20). The beads were then re-suspended in elution buffer (1×PBS, 0.05% Tween 20, 0.5 μM nonbiotinylated affinity ligand) and incubated at room temperature with shaking for 30 minutes. The kinase concentration in the eluates was measured by qPCR.
Binding constants (Kds) were calculated with a standard dose-response curve using the Hill equation. The Hill Slope was set to −1. Curves were fitted using a non-linear least square fit with the Levenberg-Marquardt algorithm.
In turn, `CC1(c2cn3c(-c4cccc(N[C@H]5CNC[C@@H]5F)n4)cnc3cn2)CC1` [Compound 1, N-((3S,4S)-4-fluoropyrrolidin-3-yl)-6-(6-(1-methylcyclopropyl)imidazo[1,2-a]pyrazin-3-yl)pyridin-2-amine] showed a Kd of 49 pM.

In turn, `CC1(c2cn3c(-c4cccc(N[C@@H]5CCNC5)n4)cnc3cn2)CC1` [Compound 3, (R)-6-(6-(1-methylcyclopropyl)imidazo[1,2-a]pyrazin-3-yl)-N-(pyrrolidin-3-yl)pyridin-2-amine] had a Kd of 53 pM. This Kd and that of the molecule before are within 1.5-fold of each other.

`CC1(c2cn3c(-c4cccc(N[C@H]5CNCC56CC6)n4)cnc3cn2)CC1` [Compound 5, (R)-N-(6-(6-(1-methylcyclopropyl)imidazo[1,2-a]pyrazin-3-yl)pyridin-2-yl)-5-azaspiro[2.4]heptan-7-amine] yielded a Kd of 36 pM.

As for `FC(F)(F)C1(c2cn3c(-c4cccc(N[C@@H]5CCNC5)n4)cnc3cn2)CC1` [Compound 10, (R)-N-(pyrrolidin-3-yl)-6-(6-(1-(trifluoromethyl)cyclopropyl)imidazo[1,2-a]pyrazin-3-yl)pyridin-2-amine], binding was characterised by a dissociation constant (Kd) of 44 pM.

In turn, `FC(F)c1cn2c(-c3cccc(N[C@H]4CNC[C@@H]4F)n3)cnc2cn1` [Compound 16, 6-(6-(difluoromethyl)imidazo[1,2-a]pyrazin-3-yl)-N-((3S,4S)-4-fluoropyrrolidin-3-yl)pyridin-2-amine] came in with a Kd of 53 pM.

Turning to `FC(F)c1cn2c(-c3cccc(N[C@H]4CNCC[C@@H]4F)n3)cnc2cn1` [Compound 25, 6-(6-(difluoromethyl)imidazo[1,2-a]pyrazin-3-yl)-N-((3S,4S)-4-fluoropiperidin-3-yl)pyridin-2-amine], the Kd worked out at 71 pM.

In the case of `CC(C)(O)c1cn2c(-c3cccc(N[C@@H]4CCCNC4)n3)cnc2cn1` [Compound 30, (R)-2-(3-(6-(piperidin-3-ylamino)pyridin-2-yl)imidazo[1,2-a]pyrazin-6-yl)propan-2-ol], the dissociation constant (Kd) is 470 pM. Compared with the last molecule, the Kd is about 6.6-fold higher.

In the case of `CC(C)(O)c1cn2c(-c3cccc(N[C@H]4CNCC[C@@H]4F)n3)cnc2cn1` [Compound 31, 2-(3-(6-(((3S,4S)-4-fluoropiperidin-3-yl)amino)pyridin-2-yl)imidazo[1,2-a]pyrazin-6-yl)propan-2-ol], the Kd is 180 pM.

In the case of `FC(F)(F)COc1cn2c(-c3cccc(N[C@@H]4CCNC4)n3)cnc2cn1` [Compound 38, (R)-N-(pyrrolidin-3-yl)-6-(6-(2,2,2-trifluoroethoxy)imidazo[1,2-a]pyrazin-3-yl)pyridin-2-amine], the Kd came out at 35 pM.

`F[C@H]1CNC[C@@H]1Nc1cccc(-c2cnc3cnc(C4CC4)cn23)n1` [Compound 50, 6-(6-cyclopropylimidazo[1,2-a]pyrazin-3-yl)-N-((3S,4S)-4-fluoropyrrolidin-3-yl)pyridin-2-amine] displayed a Kd of 44 pM. This Kd and that of the molecule before are within 1.5-fold of each other.

Turning to `Cn1cc(-c2cn3c(-c4cccc(N[C@H]5CNC[C@@H]5F)n4)cnc3cn2)cn1` [Compound 52, N-((3S,4S)-4-fluoropyrrolidin-3-yl)-6-(6-(1-methyl-1H-pyrazol-4-yl)imidazo[1,2-a]pyrazin-3-yl)pyridin-2-amine], the dissociation constant (Kd) was 64 pM.
